Paper PMC7268155 (F1000Research, 2020)
Structures can show the parent of a compound that is named as a salt.

Tests used:
[1] = tested on: Ebola virus replication (trVLP); assay: microbe, parasite or virus in culture; format: cell-based, Ebola Zaire; conditions: for inhibition at 10 µM / IC50: Zaire ebolavirus, HEK-293T; for inhibition at 10 µM: read-out: Inhibition at 10µM (percent inhibition of trVLP replication); for IC50: read-out: IC50 to inhibit Ebola virus (trVLP) replication
in vitro = conditions: human, Viability at 10µM (MTT viability)
HEK-293T cells = conditions: for Viability at 10µM (MTT viability): human
Leishmania spp. = conditions: cited from earlier work
Plasmodium = conditions: cited from earlier work
Ebola virus = conditions: cited from earlier work
Ebola virus disease = conditions: mouse, in vivo; cited from earlier work

Structure (SMILES)	inhibition at 10 µM [1] [%]	viability at 10 µM (in vitro) [%]	inhibitory activity in trVLP assay (in words) [1]	further results
N#C/C=C/c1ccc2ccccc2n1 [2CNQ]	3.07 ± 8.34	88 ± 3.63		
O=C(O)/C=C/c1ccc2ccccc2n1 [2COOHQ]	30.6 ± 6.15	88.5 ± 1.54	strongly reduced the antiviral inhibition	toxicity / cell viability (in words) (HEK-293T cells): good cell viability
NC/C=C/c1ccc2ccccc2n1 [2NH2Q]	89	81	having inhibitory activity	Inhibition at 10µM (percent inhibition of trVLP replication) [1]: 89.74± 6.53%; IC50 [1]: 4.66 µM; Viability at 10µM (MTT viability) (HEK-293T cells): 81.10± 2.09%
OC/C=C/c1ccc2ccccc2n1 [2OHQ]	89	31	having inhibitory activity	Inhibition at 10µM (percent inhibition of trVLP replication) [1]: 89.69± 4.09%; activity against Leishmania (Leishmania spp.): in vitro and in vivo activities; Viability at 10µM (MTT viability) (HEK-293T cells): 31.15± 1.27%
CCCc1ccc2ccccc2n1 [2PQSel]	10.8 ± 32.4	97.6 ± 2.06		activity against Leishmania (Leishmania spp.): in vitro and in vivo activities; antileishmanial activity (Leishmania spp.): antileishmanial activity
CCCCCc1ccc2ccccc2n1 [2PentQ]				Inhibition at 10µM (percent inhibition of trVLP replication) [1]: -6.39± 9.15%; Viability at 10µM (MTT viability) (HEK-293T cells): 103.48± 0.99%
OCCCCCCCCCCCCCCCCc1ccc2ccccc2n1 [2Q16OH]	-124 ± 30.6	74 ± 0.75		
OC(Cc1ccc2ccccc2n1)c1ccccc1 (centres unmarked) [2QPOH]	-114 ± 92.5	88.3 ± 3.26		
C(=C\c1ccc2ccccc2n1)/c1ccc2ccccc2n1 [2QQ]	74.3 ± 13.4	57.31 ± 0.29	having inhibitory activity	
C#CC(O)CCCCCCCCCCCCC#Cc1ccc2ccccc2n1 (centres unmarked) [2Qi15]	93.3 ± 4.94	109.5 ± 0.25	having inhibitory activity	
COc1ccc(/C=C/c2ccc3ccc(C(O)c4cccc(C#N)c4)c(OC)c3n2)cc1OC (centres unmarked) [AS65]	-10.2 ± 65.4	77.51 ± 0.4		
CCN(CC)Cc1cc(Nc2ccnc3cc(Cl)ccc23)ccc1O [Amodiaquine, amodiaquine dihydrochloride dihydrate, reference compound]	97.7 ± 10.6	87.7 ± 1	significant reductions in luciferase activity	IC50 [1]: 1.45 µM; antiplasmodial activity (Plasmodium): antiplasmodial activity; inhibitory effects in pseudo-type entry assay (Ebola virus): inhibitory effects; toxicity / cell viability (in words) (HEK-293T cells): without significant toxicity
CCCCCc1ccc2ccccc2n1 [BS460]		107.5 ± 0.59		Inhibition at 10µM (percent inhibition of trVLP replication) [1]: 4.04± 44.15%; antiplasmodial activity (Plasmodium): antiplasmodial activity
CCN(CC)CCCC(C)Nc1ccnc2cc(Cl)ccc12 (centres unmarked) [Chloroquine, Chloroquine diphosphate, reference compound]	92.2 ± 6.23	106 ± 1.24	significant reductions in luciferase activity	IC50 [1]: 3.95 µM; antiplasmodial activity (Plasmodium): antiplasmodial activity; protection against Ebola virus disease (Ebola virus disease): protective
Cc1ccc2ccc(Br)c(O)c2n1 [DD1]	90.5 ± 8.32	59.69 ± 0.03	having inhibitory activity	
Cc1ccc2ccc(C(=O)NCc3ccc(F)cc3)c(O)c2n1 [DD2]	80.8 ± 1.38	77 ± 4.78	having inhibitory activity	
COc1cc(Cc2c(C)nc3ccccc3c2C(=O)O)c(Cl)c2c(C)ccnc12 [DD3]	-156 ± 97.3	105 ± 2.54		
COc1ccc(Cl)c2c(C)ccnc12 [DD4]	49.7 ± 1.17	90.1 ± 1.64		
Cc1ccnc2c(O)ccc(Cl)c12 [DD5]	-66.5 ± 17.8	51.4 ± 1.31		

Structure (SMILES)	inhibition at 10 µM [1] [%]	viability at 10 µM (in vitro) [%]	inhibitory activity in trVLP assay (in words) [1]	further results
O=C(O)c1ccc2ccc(/C=C/c3cccnc3)nc2c1O [DD6]	-8.49 ± 18.6	96.7 ± 2.01		
Cc1ccc2c(C=O)cc(C=O)c(O)c2n1 [DD7]	-31.6 ± 80.9	90.3 ± 1.64		
CCn1cc(C(=O)O)c(=O)c2ccc(/C=C/c3ccc(O)c(O)c3)nc21 [DD8]	-74 ± 101	91.54 ± 0.41		
CCCCOC(=O)c1ccc2ccc(/C=C/c3cc(OC)c(O)c([N+](=O)[O-])c3)nc2c1O [FS48]	-8.41 ± 60.4	81.5 ± 0.97		
CC(=O)Nc1ccc(/C=C/c2ccc3ccc(C(=O)O)c(O)c3n2)cc1 [FZ49]	21.8 ± 28.4	72.7 ± 1.22		
O=C(O)c1ccc2ccc(/C=C/c3ccc([N+](=O)[O-])cc3)nc2c1O [FZ142]	63.1 ± 2.64	102 ± 1.39		
Oc1cccc2ccc(/C=C/c3ccc4cccc(O)c4n3)nc12 [KHD288]	-8.41 ± 60.4	62.7 ± 0.72		
N#Cc1ccc2ccc(/C=C/c3ccc(O)c(O)c3)nc2c1O [KHD291]	-68.1 ± 58.1	71.17 ± 0.12		
O=C(c1ccc([N+](=O)[O-])cc1)c1ccc2ccc(/C=C/c3ccc(O)c(O)c3)nc2c1O [MBN87]	-17.9 ± 51.8	70.5 ± 0.78		
O=C(c1ccc(F)c(F)c1)c1ccc2ccc(/C=C/c3ccc(O)c(O)c3)nc2c1O [MBN91]	81.8 ± 8.8	43.5 ± 0.73	having inhibitory activity	
CCCCCCCCC(=O)c1ccc2ccc(/C=C/c3ccc(O)c(O)c3)nc2c1O [MBN111]	-48.9 ± 87.8	42.5 ± 4.97		
Cc1ccc2ccc(C(=O)c3ccc([N+](=O)[O-])cc3)c(O)c2n1 [MBN115]		77.1 ± 0.93		
O=C(c1ccccn1)c1ccc2ccc(/C=C/c3ccc(O)c(O)c3)nc2c1O [MBN132]	-10.4 ± 57.7	105 ± 1.39		
Cc1ccc(C(=O)c2ccc3ccc(/C=C/c4ccc(O)c(O)c4)nc3c2O)cc1[N+](=O)[O-] [MBN140]	-68.1 ± 58.1	67.6 ± 0.73		
O=C(NCc1ccc(O)c(O)c1)c1ccc2cccc(C(=O)O)c2n1 [MD20]	-124 ± 93.4	108.3 ± 0.56		
O=[N+]([O-])c1cccc(-c2cc(Br)c(O)c3nc(/C=C/c4ccc(O)c(O)c4)ccc23)c1 [MD823]	76.2 ± 3.16	58.9 ± 1.59	having inhibitory activity	
COc1ccc(CNC(=O)Nc2ccc3ccc(C(=O)O)c(O)c3n2)cc1 [TOF401]	-44.6 ± 11.9	106 ± 1.08		
O=C(CC(=O)c1ccc2ccc(C(=O)O)c(O)c2n1)c1ccccc1 [TOF411]	71.04 ± 0.67	104.9 ± 0.6	having inhibitory activity	
C(/C=C/c1ccc2ccccc2n1)=C\c1ccccc1 [XF906]	0.21 ± 20.3	104 ± 1.65		
